Measurements taken from patent US20250346576A1, “KCNT1 INHIBITORS COMPRISING A PYRAZOLE CORE AND METHODS OF USE” (PRAXIS PRECISION MEDICINES, INC., priority 2022, published 2025).

Experiments:
[1] = Kinetic solubility assay (shake flask, HPLC-UV); assay type: physicochemical; settings: aqueous buffer, kinetic from dmso stock, 50 mM pH 7.4 phosphate buffer, room temperature
Experimental: Kinetic Solubility Assay: The Kinetic solubility assay employed the shake flask method followed by HPLC-UV analysis. The following step-wise procedure is used: • 1) Weigh and dissolve the samples in 100% DMSO as the stock solution of 10 mM. About 10 μL (compound/Media) of stock solution is needed in this assay. • 2) Add the test compounds and controls (10 mM in DMSO, 10 μL/vial) into the 50 mM pH 7.4 phosphate buffer (490 μL/well) placed in a Mini-Uniprep filter. • 3) Vortex the samples of kinetic solubility for 2 minutes. • 4) Incubate and shake the solubility solutions on an orbital shaker with 800 rpm at room temperature for 24 hours. • 5) Centrifuge at 4000 rpm, 20° C. for 10 minutes. • 6) Transfer 400 μL (with or without dilution) of each solubility supernatant into 96-deep well for analysis after the samples will be directly filtered by the syringeless filter device. • 7) Determine the test compound concentration of the filtrate using HPLC-UV. • 8) Inject at least 5 UV standard solutions into HPLC from low to high concentration subsequently and then test the Kinetic solubility supernatant in duplicate. • 9) Use the QC samples to monitor Kinetic solubility determination process.

[2] = Liver microsome metabolic stability assay (NADPH); assay type: in vitro ADME; settings: human liver microsomes, 1.0 μM compound, 0.5 mg/ml protein, 37° C., read-out: CLint (HClint)
Experimental: Liver Microsome Metabolic Stability Assay (NADPH): • 1) Test compounds were incubated at 37° C. with liver microsomes (pooled from multiple donors) at 1.0 μM in the presence of NADPH (˜1.0 mM) at 0.5 mg/ml microsomal protein. • 2) Positive controls include testosterone (3A4 substrate), propafenone (2D6) and diclofenac (2C9). They are also incubated with microsomes in the presence of NADPH. • 3) Time samples (0, 5, 15, 30, 45 and 60 minutes) are removed and immediately mixed with cold acetonitrile containing internal standard (IS). Test compound incubated with microsomes without NADPH for 60 min are also included. • 4) Duplicate point for each test condition (n=2). • 5) Samples are analyzed by LC/MS/MS; disappearance of test compound is assessed base on peak area ratios of analyte/IS (no standard curve). • 6) An excel data summary, calculated intrinsic clearance and T1/2 values are provided. • 7) The following equation is used to calculate the microsome clearance: […]
The mg microsomal protein/g liver weight is 45 for 5 species. The liver weight values will use 40 g/kg, 30 g/kg, 32 g/kg, 20 g/kg and 88 g/kg for rat, monkey, dog, human and mouse, respectively. The liver clearance will be calculated using CLint(mic) with the following equation: […]

Which solubility kinetic at 24 h [1] does the source give for `Cn1nc(C(F)(F)F)cc1C(=O)NC(C)(C)c1cc(-c2ccnc(C(F)(F)F)c2)nn1C` [Compound 1063, 1-methyl-N-(2-(1-methyl-3-(2-(trifluoromethyl)pyridin-4-yl)-1H-pyrazol-5-yl)propan-2-yl)-3-(trifluoromethyl)-1H-pyrazole-5-carboxamide] here?
The solubility kinetic at 24 h was less than 1.6 µM.

And the microsomal CLint at 1 μM [2]?
The microsomal CLint at 1 μM was less than 9.6 µL/min/mg.

Which solubility kinetic at 24 h [1] does the source give for `Cn1nc(C(F)(F)F)cc1C(=O)NC1(c2cc(-c3ccnc(C(F)(F)F)c3)nn2C)CCC1` [Compound 1064, 1-methyl-N-(1-(1-methyl-3-(2-(trifluoromethyl)pyridin-4-yl)-1H-pyrazol-5-yl)cyclobutyl)-3-(trifluoromethyl)-1H-pyrazole-5-carboxamide] here?
The solubility kinetic at 24 h was less than 1.6 µM.

And the microsomal CLint at 1 μM [2]?
The microsomal CLint at 1 μM was less than 9.6 µL/min/mg.
